Test [1] has as its target T1, recombinant MBP-tagged LINE1 protein (238-1061) (Homo sapiens, UniProt O00370).
T1 construct: recombinant MBP-tagged LINE1 protein (238-1061); MBP; made in house
Nature of the test: Homogeneous time-resolved fluorescence (HTRF) LINE1 RT assay. Type of test: biochemical. The conditions noted are these: 25° C., 60 minutes, read-out: IC50 for inhibition of LINE1 reverse transcriptase. On the procedure: The LINE1 reverse transcriptase homogeneous time-resolved fluorescence (HTRF) assay was performed with recombinant MBP-tagged LINE1 protein (238-1061) (generated and purified according to procedures in Dai L. et al. BMC Biochemistry 2011; 12:18) in a 384-well format. Test compound was serially diluted in DMSO and further diluted in the assay buffer (50 mM Tris-HCl, 50 mM KCl, 10 mM MgCl2, 10 mM DTT, pH 8.1) to achieve a final DMSO concentration of 1%. The serially diluted compound was mixed with 64 ng/well of LINE1 enzyme, 5 nM of pre-annealed template/biotin-primer pair (synthesized at Generay Biotechnology), 10 nM of Fluorescein-12-dATP fluorescent probe (Perkin Elmer), and 1 μM dGTP/dCTP/dTTP (Thermo Fisher Scientific) in the assay buffer. The template/biotin-primer sequences were as follows:
After incubating at 25° C. for 60 minutes, the detection reagent (20 mM EDTA with streptavidin-terbium cryptate, Cisbio Bioassay) in the PPI buffer (Cisbio Bioassay) was added, and the mixture was incubated at 25° C. for 30 minutes. At the end of the incubation, fluorescence was read at ex/em=337/485 nm and ex/em=337/520 nm on an Envision 2104 plate reader (Perkin Elmer). The fluorescence ratio at 520/485 nm was used for the calculation. […] The IC50 was calculated by fitting the compound dose inhibition curve with a 4-parameter non-linear regression equation.

Test [2] concerns the target T2, LINE1 reverse transcriptase (Homo sapiens, UniProt O00370).
T2 construct: expressed in transfected cells
The experiment in a line: Stable artificial-intron Cis LINE1 reporter assay (HeLa Tet-On 3G). Format: cell-based. Conditions: HeLa L1 reporter cells, doxycycline induced, 72 h; read-out: IC50 for inhibition of FLuc luminescence. From the text:
A stable HeLa Tet-On 3G (Takara, cat no 631183) cell line expressing a bi-directional inducible LINE1 construct was generated as described in Xie, Y. et al. “Cell division promotes efficient retrotransposition in a stable L1 reporter cell line,” Mobile DNA (2013) 4:10. Single cell clones were screened for high Luciferase expression and the highest expression Firefly expressing clone was chosen for compound testing.
Test compound was serially diluted in DMSO and spotted in 96-well plates. Subsequently the HeLa L1 artificial-intron reporter cells were plated into the compound-containing wells (8,000 cells/well), and the cells were induced for reporter expression with doxycycline (Sigma cat no D9891) at a final concentration of 500 ng/mL. Luminescence was measured 72 h after plating using the Dual-Glo Luciferase Assay System (Promega cat no E2940) following the manufacturer's instructions. The Firefly Luciferase activity was used to report LINE1 activity.
(In general: Reporter assays use an easily measured gene product as a stand-in for the process of interest.)

Test [3] has as its system THP1-Dual™ KO-TREX1 cells. Nature of the test: CellTiter-Glo cell viability in THP1 TREX1 KO cells. Format: cell-based. Conditions: Homo sapiens, 120 h, in the presence of 1 μM 5-aza-2′-deoxycytidine, five days, read-out: CellTiter-Glo inhibition IC50. The protocol:
(§1) THP1-Dual™ KO-TREX1 cells were purchased from Invivogen (cat #thpd-kotrex). The THP1-Dual™ KO-TREX1 cells were cultured in RPMI 1640, 10% heat-inactivated fetal bovine serum, 25 mM HEPES, 10 μg/mL Blasticidin, and 100 μg/mL Zeocin. THP1-Dual™ KO-TREX1 cells were treated with a dose titration of test compound in the presence of 1 μM 5-aza-2′-deoxycytidine (Sigma, cat #189825). Type 1 Interferon and cell viability were assessed after five days of treatment.
(§2) Stock solution of test compound was prepared in DMSO followed by a three-fold dilution in DMSO. Additional 50× dilution was prepared in cell culture media for each dilution. 10 μL of diluted test compound was then added to a 384-well plate.
THP1-Dual™ KO-TREX1 cells were treated with 1 μM 5-aza-2′-deoxycytidine. THP1-Dual™ KO-TREX1 cells (50 μL) were added to each well of the 384-well plate containing test compound titration at 10,000 cells/well. Cells were incubated at 37° C., 5% CO2 in a humidified incubator for five days. […] Luminescence was detected on a plate reader according to manufacturer's instructions. […]
The remaining cells were assessed for cell viability by adding 30 μl of CellTiter-Glo (Promega, G9683) solution to each well, and placed on a shaker for 10 minutes at room temperature. Luminescence was detected on a plate reader, according to manufacturer's instructions. […]
(In ATP-based viability assays light output follows the ATP content of the culture.)

Test [4] deals with IFN-β production in PBMCs. Nature of the test: Decitabine-stimulated human PBMC assay. Format: cell-based. Conditions: PBMCs with anti-CD3/anti-CD28 and 10 μM decitabine, 5 days. The protocol: EasySep buffer (32 mL, Stem Cell, cat. #20144) was used to dilute 8 mL of LRSC buffy coat (from fresh Leukopak) with gentle mixing. The diluted buffy coat (20 mL) was transferred into each of two SepMate 50 tubes, and the tubes were filled with 15 mL of Lyphoprep (Stem Cell, ct. #07851) density gradient. The SepMate tubes were then centrifuged at […] for 10 minutes at room temperature with the brake on. The top layer of supernatant was collected in SepMate tubes by quickly pouring it into a new 50 mL conical tube. The PBMCs were washed with EasySep buffer x2 by centrifuging at 300G for 5 minutes. The cells were resuspended in 30 mL of EasySep and centrifuged at 100G for 5 minutes with the brake off, and the platelets were removed. The cells were then resuspended in 6 mL of 1×RBC lysis buffer (InvitroGen) and incubated at 37° C. for 5 minutes. Then, 25 mL of EasySep buffer was mixed into the tube and it was centrifuged at 300G for 5 minutes. The cells were resuspended in 10 mL of EasySep buffer and the cells were then counted with Cellometer (AO/PI). The PBMCs were resuspended in RPMI1640 (ThermoFisher)+10% FBS (HyClone)+p/s at 3×10^6/mL. The PBMCs (100 μL, 300 k PBMCs) were then seeded in a 96-well flat bottom microplate (Corning) that had been precoated with 100 μL of anti-CD3 antibody (10 μg/mL in PBS, Biolegend) or PBS at 4° C., one day before the assay was commenced. […]

Test [5] concerns THP1-Dual™ KO-TREX1 cells. The experiment in a line: Cellular assay for altering IFN production in THP1 TREX1 KO cells. Type of test: cell-based. The conditions noted are these: in the presence of 1 μM 5-aza-2′-deoxycytidine, five days. On the procedure: as §1, §2
THP1-Dual™ KO-TREX1 cells were treated with 1 μM 5-aza-2′-deoxycytidine. THP1-Dual™ KO-TREX1 cells (50 μL) were added to each well of the 384-well plate containing test compound titration at 10,000 cells/well. Cells were incubated at 37° C., 5% CO2 in a humidified incubator for five days. On day five, 20 μL of cell supernatant was transferred to a 384-well, white-walled plate, followed by addition to each well of 50 μL of QUANTI-LUC solution containing stabilizer. Luminescence was detected on a plate reader according to manufacturer's instructions. […]

The target of test [6] is T2, LINE1 reverse transcriptase. The experiment in a line: Transient artificial-intron Cis LINE1 reporter assay. Format: cell-based. Conditions: HEK 293 cells, FLuc/RLuc ratio, read-out: IC50 for inhibition of FLuc luminescence. The protocol:
Intron-disrupted Firefly luciferase (FLuc) expression cassettes were generated as described by Xie, Y. et al. “Characterization of L1 retrotransposition with high-throughput dual-luciferase assays,” Nucleic Acid Res. (2011) Vol. 39, No. 3, e16. In addition, the plasmid contained an intact Renilla luciferase (RLuc) expression cassette on the vector backbone, in order to normalize transfection efficiency and measure potential cell toxicity.
HEK 293 cells were seeded in 96-well plates at 1,000 cells/well in 55 μL and grown for 24 hours. Cells were transfected with FuGeneHD (Promega) following the manufacturer's protocol. Each well received 0.133 ng plasmid, 0.4 μL FuGeneHD reagent, and 4.5 μL GlutaMAX-I-supplemented Opti-MEM I reduced-serum medium (Invitrogen). Cells were simultaneously treated with test compound serially diluted starting at 100 μM in a 3-fold dilution dose response.
Luminescence was measured using the Dual-Glo Luciferase Assay System (Promega) following the manufacturer's instructions. The ratio between FLuc and RLuc gene expression was used to report LINE1 activity.

The subject of another test is SK-OV-3 cells. Nature of the test: Cancer cell viability assay with 3D cell colonies (CellTiter-Glo), SK-OV-3. Conditions: 3D tumorsphere growth, 7 days. Type of test: cell-based. The protocol:
(§3) Ovarian cancer cell line SK-OV-3 cells were cultured in McCoy's 5a media containing 10% FBS. Ovarian cancer cell line OVCAR-8 cells were cultured in RPMI media containing 10% FBS. Additional cancer cell lines were cultured in the following media: • Ovarian cancer SW756 cells—L-15 (100% air)+10% FBS • Esophageal cancer TE-1 cells—RPMI-1640+10% FBS • Esophageal cancer KYSE-410 cells—RPMI-1640+5˜10% FBS • Esophageal cancer KYSE-70 cells—RPMI-1640+10% h.i.FBS. • Pharyngeal cancer FaDu cells—MEM+0.01 mM NEAA+10% FBS
(§4) Cell colony formation was tested using a 3D methylcellulose-based CellTiter-Glo (CTG) viability assay (Cat. No: G7573, Promega). Briefly, cells were inoculated into 96-well plates (at 1,500 cells per well) into a solution of 0.65% methylcellulose in growth media and incubated overnight at 37° C. in 5% CO2. The next day, serially diluted test compound (islatravir) or positive control (cisplatin, Cat. No. 6J015A89, Qilu Pharma) were added at the indicated concentrations, and the cells were incubated for 7 days. On day seven, 100 μL of CTG reagent was added, and the plates were incubated at room temperature for 20 min. Luminescence was read on an Envision Multi Label Reader according to manufacturer's instructions. IC50 values were determined using the following calculation: […]

For a further test, the system named is TE-1 cells. The experiment in a line: Cancer cell viability assay with 3D cell colonies (CellTiter-Glo), TE-1. Format: cell-based. Conditions: 7 days. The protocol: as §3, §4
Another test concerns FaDu cells. Nature of the test: Cancer cell viability assay with 3D cell colonies (CellTiter-Glo), FaDu. Format: cell-based. The conditions noted are these: 7 days. The protocol:
as §3, §4

A further test deals with KYSE-70 cells. The experiment in a line: Cancer cell viability assay with 3D cell colonies (CellTiter-Glo), KYSE-70. Format: cell-based. The conditions noted are these: 7 days. The protocol: as §3, §4
The subject of another test is OVCAR-8 cells. The experiment in a line: Cancer cell viability assay with 3D cell colonies (CellTiter-Glo), OVCAR-8. Type of test: cell-based. The conditions noted are these: 3D tumorsphere growth, 7 days. The protocol:
as §3, §4

The next test concerns SW756 cells. The experiment in a line: Cancer cell viability assay with 3D cell colonies (CellTiter-Glo), SW756. Format: cell-based. The conditions noted are these: 7 days. The protocol:
as §3, §4

A further test deals with KYSE-410 cells. Nature of the test: Cancer cell viability assay with 3D cell colonies (CellTiter-Glo), KYSE-410. Type of test: cell-based. The conditions noted are these: 7 days. On the procedure:
as §3, §4

The text below walks through data of US20250186475A1, “METHODS OF TREATING MEDICAL CONDITIONS USING ISLATRAVIR OR A RELATED COMPOUND” (ROME Therapeutics, Inc., priority 2022, published 2025).

By IC50 is commonly meant the midpoint of a concentration-inhibition curve.

Consider `C#C[C@]1(COP(=O)(O)OP(=O)(O)OP(=O)(O)O)O[C@@H](n2cnc3c(N)nc(F)nc32)C[C@@H]1O`, for which the concentration for half-maximal inhibition (IC50) in test [1] worked out at 0.0124 µM.

`C#C[C@]1(CO)O[C@@H](n2cnc3c(N)nc(Cl)nc32)C[C@@H]1O` [4′-ethynyl-2-chloro-2′-deoxyadenosine]: the IC50 in [2] is 0.003 µM; in test [3] it was > 20 µM; in test [6] it was 0.008 µM. For the same molecule, the “production of IFN-β” value in test [4] is “activated production of IFN-β”. Besides, the “changes in IFN levels (% induction)” value in [5] is “induction of IFN”.

As to `N.N.[Cl][Pt][Cl]` [Cisplatin, cisplatin], the IC50 with SK-OV-3 cells was 2.24 µM; in the test with TE-1 cells it was ≤ 10 µM; in the test on FaDu cells, ≤ 10 µM; in the test with KYSE-70 cells, ≤ 10 µM; in the test on OVCAR-8 cells, 3.29 µM; in the test on SW756 cells, ≤ 10 µM. The IC50 with KYSE-410 cells is > 30 µM.
